Columns and labels:
[1] = target: T1, Alpha-2C adrenergic receptor (Homo sapiens, UniProt P18825); experiment: DRUGMATRIX: Adrenergic Alpha-2C radioligand binding (ligand: [3H] MK-912); assay type: cell membranes, Sf9, Membrane
T1 sequence (P18825 whole entry): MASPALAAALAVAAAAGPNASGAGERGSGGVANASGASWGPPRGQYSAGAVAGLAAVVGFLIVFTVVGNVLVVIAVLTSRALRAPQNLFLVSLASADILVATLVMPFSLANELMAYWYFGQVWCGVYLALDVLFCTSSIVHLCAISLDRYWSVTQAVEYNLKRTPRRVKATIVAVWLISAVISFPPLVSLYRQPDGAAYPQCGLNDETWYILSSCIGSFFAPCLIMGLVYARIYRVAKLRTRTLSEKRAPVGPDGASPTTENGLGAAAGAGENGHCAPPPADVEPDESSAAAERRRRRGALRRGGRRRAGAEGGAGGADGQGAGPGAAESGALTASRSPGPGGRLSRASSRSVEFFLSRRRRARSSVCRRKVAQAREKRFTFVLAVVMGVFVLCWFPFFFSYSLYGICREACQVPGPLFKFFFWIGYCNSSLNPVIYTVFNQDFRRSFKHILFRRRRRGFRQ

Thromboxane-A synthase = target: T2, Thromboxane-A synthase (Homo sapiens, UniProt P24557); experiment: biochemical; assay type: tissue-based, Platelet; details: platelet;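 also: enzyme inhibition assay with PGH2 supplied as substrate; in other assays of this panel Not Active means under 50% inhibition at 10 µM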
T2 sequence (P24557 whole entry): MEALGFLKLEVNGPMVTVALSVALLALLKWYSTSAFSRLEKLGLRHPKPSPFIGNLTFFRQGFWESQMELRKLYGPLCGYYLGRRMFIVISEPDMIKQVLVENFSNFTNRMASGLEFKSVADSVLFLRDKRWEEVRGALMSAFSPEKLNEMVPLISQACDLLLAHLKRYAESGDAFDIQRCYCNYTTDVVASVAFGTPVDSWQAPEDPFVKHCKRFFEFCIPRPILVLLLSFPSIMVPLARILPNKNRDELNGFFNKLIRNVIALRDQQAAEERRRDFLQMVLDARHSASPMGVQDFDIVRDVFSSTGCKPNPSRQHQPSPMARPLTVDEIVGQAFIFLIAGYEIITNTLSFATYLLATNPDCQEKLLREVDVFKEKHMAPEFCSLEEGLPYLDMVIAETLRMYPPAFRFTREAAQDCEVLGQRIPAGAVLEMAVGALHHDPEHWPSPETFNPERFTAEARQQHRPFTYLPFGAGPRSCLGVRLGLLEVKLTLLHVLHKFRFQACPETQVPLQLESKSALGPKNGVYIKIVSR

[2] = DRUGMATRIX: GABAA, Flunitrazepam, Central radioligand binding (ligand: [3H] Flunitrazepam); assay type: cell membranes, Rattus norvegicus, Wistar, Brain, Membrane; details: Not Active = under 50% inhibition at 10 µM
[3] = target: 5-hydroxytryptamine receptor 6 (Homo sapiens, UniProt P50406); assay type: cell membranes, HeLa, Membrane; details: hela; also: in other assays of this panel Not Active means under 50% inhibition at 10 µM
Chain of 5-hydroxytryptamine receptor 6 (P50406 whole entry): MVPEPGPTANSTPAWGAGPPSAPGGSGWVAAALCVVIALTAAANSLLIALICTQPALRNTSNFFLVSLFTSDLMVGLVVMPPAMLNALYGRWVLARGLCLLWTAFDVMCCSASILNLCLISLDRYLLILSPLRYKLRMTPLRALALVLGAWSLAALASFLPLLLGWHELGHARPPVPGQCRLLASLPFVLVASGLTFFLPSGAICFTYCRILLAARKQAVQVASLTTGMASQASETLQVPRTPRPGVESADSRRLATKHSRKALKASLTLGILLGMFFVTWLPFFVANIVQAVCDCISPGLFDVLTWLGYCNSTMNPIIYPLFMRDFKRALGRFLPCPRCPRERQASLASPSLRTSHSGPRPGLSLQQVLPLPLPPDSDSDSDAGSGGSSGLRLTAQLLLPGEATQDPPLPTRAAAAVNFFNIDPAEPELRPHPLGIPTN

Mu-type opioid receptor = Mu-type opioid receptor (Homo sapiens, UniProt P35372); experiment: DRUGMATRIX: Opiate mu (OP3, MOP) radioligand binding (ligand: [3H] Diprenorphine); assay type: cell membranes, CHO-K1, Membrane; details: Not Active = under 50% inhibition at 10 µM
Chain of Mu-type opioid receptor (P35372 whole entry): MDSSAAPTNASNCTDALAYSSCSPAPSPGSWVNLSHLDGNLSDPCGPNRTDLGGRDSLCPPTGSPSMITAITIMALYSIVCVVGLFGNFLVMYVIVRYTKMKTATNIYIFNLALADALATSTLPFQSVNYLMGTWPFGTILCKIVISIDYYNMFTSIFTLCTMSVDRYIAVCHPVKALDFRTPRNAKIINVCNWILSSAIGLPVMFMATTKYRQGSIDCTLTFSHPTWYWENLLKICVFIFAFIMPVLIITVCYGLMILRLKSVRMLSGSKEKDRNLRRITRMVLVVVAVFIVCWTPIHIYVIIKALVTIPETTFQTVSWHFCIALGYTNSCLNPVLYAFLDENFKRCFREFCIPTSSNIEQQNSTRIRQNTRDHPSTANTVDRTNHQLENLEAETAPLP

[4] = target: Protein phosphatase 3 catalytic subunit alpha (Homo sapiens, UniProt Q08209); set-up: species or system Escherichia coli;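 also: inhibition of calcineurin (PP2B) enzyme activity, measured with DiFMUP as the substrate; in other assays of this panel Not Active means under 50% inhibition at 10 µM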

SMILES | IC50 ([1]; sf9) | IC50 (Thromboxane-A synthase) | IC50 [2] | Ki [2] | IC50 [3] | IC50 (Mu-type opioid receptor; cho-k1) | IC50 [4] | Ki (Mu-type opioid receptor) | IC50 (Mu-type opioid receptor; read-out: IC50) | IC50 ([1]; read-out: IC50) | Ki ([1]; read-out: Ki) | IC50 ([2]; read-out: IC50) | Ki ([2]; read-out: Ki)
Oc1ccccc1O [CATECHOL] | Not Active | Not Active | Not Active | Not Active | Not Active | Not Active | Not Active |  |  |  |  |  | 
CO[C@@]1(NC(=O)CSCC#N)C(=O)N2C(C(=O)O)=C(CSc3nnnn3C)CS[C@@H]21 [CEFMETAZOLE] | Not Active | Not Active | Not Active | Not Active | Not Active | Not Active | Not Active |  |  |  |  |  | 
CN(C(=O)CCCOc1ccc2[nH]c(=O)ccc2c1)C1CCCCC1 [CILOSTAMIDE] | Not Active | Not Active | Not Active | Not Active | Not Active | Not Active | Not Active |  |  |  |  |  | 
CC(C)(Oc1ccc(C2CC2(Cl)Cl)cc1)C(=O)O (stereo not given) [CIPROFIBRATE] | Not Active | Not Active | Not Active | Not Active | Not Active | Not Active | Not Active |  |  |  |  |  | 
Nc1nc(Cl)nc2c1ncn2[C@H]1C[C@H](O)[C@@H](CO)O1 [CLADRIBINE] | Not Active | Not Active | Not Active | Not Active | Not Active | Not Active | Not Active |  |  |  |  |  | 
CC[C@H]1OC(=O)[C@H](C)[C@@H](O[C@H]2C[C@@](C)(OC)[C@@H](O)[C@H](C)O2)[C@H](C)[C@@H](O[C@@H]2O[C@H](C)C[C@H](N(C)C)[C@H]2O)[C@](C)(OC)C[C@@H](C)C(=O)[C@H](C)[C@@H](O)[C@]1(C)O [CLARITHROMYCIN] | Not Active | Not Active | Not Active | Not Active | Not Active | Not Active | Not Active |  |  |  |  |  | 
CCC[C@@H]1C[C@@H](C(=O)N[C@@H]([C@H]2O[C@H](SC)[C@H](O)[C@@H](O)[C@H]2O)[C@H](C)Cl)N(C)C1 [CLINDAMYCIN] | Not Active | Not Active | Not Active | Not Active | Not Active | Not Active | Not Active |  |  |  |  |  | 
O=C(O)c1cc(=O)c2c(OCC(O)COc3cccc4oc(C(=O)O)cc(=O)c34)cccc2o1 [CROMOLYN] | Not Active | Not Active | Not Active | Not Active | Not Active | Not Active | Not Active |  |  |  |  |  | 
O=P1(N(CCCl)CCCl)NCCCO1 (stereo not given) [CYCLOPHOSPHAMIDE ANHYDROUS] | Not Active | Not Active | Not Active | Not Active | Not Active | Not Active | Not Active |  |  |  |  |  | 
CC(=O)O[C@]1(C(C)=O)CC[C@H]2[C@@H]3C=C(Cl)C4=CC(=O)[C@@H]5C[C@@H]5[C@]4(C)[C@H]3CC[C@@]21C [CYPROTERONE ACETATE] | Not Active | Not Active | Not Active | Not Active | Not Active |  | Not Active | 0.886 µM | 2.18 µM |  |  |  | 
C#C[C@]1(O)CC[C@H]2[C@@H]3CCC4=Cc5oncc5C[C@]4(C)[C@H]3CC[C@@]21C [DANAZOL] |  | Not Active |  |  | Not Active |  | Not Active | 5.72 µM | 14.1 µM | 23.8 µM | 3.45 µM | 54.3 µM | 44.3 µM
CCN[C@@H](C)Cc1cccc(C(F)(F)F)c1 [DEXFENFLURAMINE] | Not Active | Not Active | Not Active | Not Active | Not Active | Not Active | Not Active |  |  |  |  |  | 
C[C@H](C(=O)O)c1cccc(C(=O)c2ccccc2)c1 [DEXKETOPROFEN] | Not Active | Not Active | Not Active | Not Active | Not Active | Not Active | Not Active |  |  |  |  |  | 
CN1C(=O)CN=C(c2ccccc2)c2cc(Cl)ccc21 [DIAZEPAM] | Not Active | Not Active |  |  | Not Active | Not Active | Not Active |  |  |  |  | 0.0288 µM | 0.0235 µM
Cc1c(N(C)CS(=O)(=O)[O-])c(=O)n(-c2ccccc2)n1C.[Na+] [DIPYRONE SODIUM] | Not Active | Not Active | Not Active | Not Active | Not Active | Not Active | Not Active |  |  |  |  |  | 
CC(CCc1ccc(O)cc1)NCCc1ccc(O)c(O)c1 (stereo not given) [DOBUTAMINE] | Not Active | Not Active | Not Active | Not Active | Not Active | Not Active | Not Active |  |  |  |  |  | 
CCn1cc(C(=O)O)c(=O)c2cc(F)c(N3CCNCC3)nc21 [ENOXACIN] | Not Active | Not Active | Not Active | Not Active | Not Active | Not Active | Not Active |  |  |  |  |  | 
CCC(=O)O[C@H]1[C@H](O[C@@H]2[C@@H](C)[C@H](O[C@H]3C[C@@](C)(OC)[C@@H](O)[C@H](C)O3)[C@@H](C)C(=O)O[C@H](CC)[C@@](C)(O)[C@H](O)[C@@H](C)C(=O)[C@H](C)C[C@@]2(C)O)O[C@H](C)C[C@@H]1N(C)C [ERYTHROMYCIN PROPIONATE] | Not Active | Not Active | Not Active | Not Active | Not Active | Not Active | Not Active |  |  |  |  |  | 
C=C(CC)C(=O)c1ccc(OCC(=O)O)c(Cl)c1Cl [ETHACRYNIC ACID] | Not Active | Not Active | Not Active | Not Active | Not Active | Not Active | Not Active |  |  |  |  |  | 
C#C[C@]1(O)CC[C@H]2[C@@H]3CCc4cc(O)ccc4[C@H]3CC[C@@]21C [ETHINYL ESTRADIOL] | Not Active | Not Active | Not Active | Not Active | Not Active |  | Not Active | 10.9 µM | 26.8 µM |  |  |  | 
OCCO [ETHYLENE GLYCOL] | Not Active | Not Active | Not Active | Not Active | Not Active | Not Active | Not Active |  |  |  |  |  | 
CC(=O)OCC(CCn1cnc2cnc(N)nc21)COC(C)=O [FAMCICLOVIR] | Not Active | Not Active | Not Active | Not Active | Not Active | Not Active | Not Active |  |  |  |  |  | 
O=C(O)Cc1ccc(-c2ccccc2)cc1 [FELBINAC] | Not Active | Not Active | Not Active | Not Active | Not Active | Not Active | Not Active |  |  |  |  |  | 
CCOC(=O)C1=C(C)NC(C)=C(C(=O)OC)C1c1cccc(Cl)c1Cl (stereo not given) [FELODIPINE] | Not Active | Not Active | Not Active | Not Active | Not Active | Not Active | Not Active |  |  |  |  |  | 
CC(C(=O)O)c1ccc(-c2ccccc2)c(F)c1 (stereo not given) [FLURBIPROFEN] | Not Active | Not Active | Not Active | Not Active | Not Active | Not Active | Not Active |  |  |  |  |  | 
Cc1cn[nH]c1 [FOMEPIZOLE] | Not Active | Not Active | Not Active | Not Active | Not Active | Not Active | Not Active |  |  |  |  |  | 
NC[C@@H]1O[C@H](O[C@H]2[C@@H](O)[C@H](O[C@@H]3[C@@H](O)[C@H](N)C[C@H](N)[C@H]3O[C@H]3O[C@H](CN)[C@@H](O)[C@H](O)[C@H]3N)O[C@@H]2CO)[C@H](N)[C@@H](O)[C@@H]1O [FRAMYCETIN] | Not Active | Not Active | Not Active | Not Active | Not Active | Not Active | Not Active |  |  |  |  |  | 
C[C@H]([C@](O)(Cn1cncn1)c1ccc(F)cc1F)S(C)(=O)=O [GENACONAZOLE] | Not Active | Not Active | Not Active | Not Active | Not Active | Not Active | Not Active |  |  |  |  |  | 
